Data: US7528164B2, “Substituted 4-aryl-4h-pyrrolo[2,3-h]chromenes and analogs as activators of caspases and inducers of apoptosis and the use thereof” (Cytovia, Inc., priority 2002, dated 2009)

What was measured:
T-47D = test: Caspase cascade activation assay in T-47D cells (N-(Ac-DEVD)-N'-ethoxycarbonyl-R110 fluorogenic substrate); type: cell-based; settings: T-47D human breast cancer cells, 24 h incubation; for EC50: T47D, sigmoidal dose-response, read-out: Caspase potency EC50; for Caspase activity (Ratio): ratio of net RFU of test compound to control
Method: (§1) Human breast cancer cell lines T-47D and ZR-75-1 were grown according to media component mixtures designated by American Type Culture Collection+10% FCS (Invitrogen Corporation), in a 5% CO2-95% humidity incubator at 37° C. T-47D and ZR-75-1 cells were maintained at a cell density between 30 and 80% confluency at a cell density of 0.1 to 0.6×10^6 cells/mL. Cells were harvested at 600×g and resuspended at 0.65×10^6 cells/mL into appropriate media+10% FCS. An aliquot of 45 μl of cells was added to a well of a 96-well microtiter plate containing 5 μl of a 10% DMSO in RPMI-1640 media solution containing about […] of 2-amino-3-cyano-4-(5-methyl-pyridin-3-yl)-7-methyl-4H-pyrrolo[2,3-h]chromene (Example 10) or other test compound (0.016 to 1 μM final). An aliquot of 45 μl of cells was added to a well of a 96-well microtiter plate containing 5 μl of a 10% DMSO in RPMI-1640 media solution without test compound as the control sample. The samples were mixed by agitation and then incubated at 37° C. for 24 h in a 5% CO2-95% humidity incubator. After incubation, the samples were removed from the incubator and 50 μl of a solution containing 20 μM of N-(Ac-DEVD)-N′-ethoxycarbonyl-R110 (SEQ ID No:1) fluorogenic substrate (Cytovia, Inc.; U.S. Pat. No. 6,335,429), 20% sucrose (Sigma), 20 mM DTT (Sigma), 200 mM NaCl (Sigma), 40 mM Na PIPES buffer pH 7.2 (Sigma), and 500 μg/ml lysolecithin (Calbiochem) was added. The samples were mixed by agitation and incubated at room temperature. Using a fluorescent plate reader (Model 1420 Wallac Instruments), an initial reading (T=0) was made approximately 1-2 min after addition of the substrate solution, employing excitation at 485 nm and emission at 530 nm, to determine the background fluorescence of the control sample. After the 3 h incubation, the samples were read for fluorescence as above (T=3 h).
(§2) The Relative Fluorescence Unit values (RFU) were used to calculate the sample readings as follows: RFU(T=3h)−Control RFU(T=0)=Net RFU(T=3h) The activity of caspase cascade activation was determined by the ratio of the net RFU value for 2-amino-3-cyano-4-(5-methyl-pyridin-3-yl)-7-methyl-4H-pyrrolo[2,3-h]chromene or other test compound to that of control samples. The EC50 (nM) was determined by a sigmoidal dose-response calculation (Prism 2.0, GraphPad Software Inc.).

ZR-75-1 = test: Caspase cascade activation assay in ZR-75-1 cells (N-(Ac-DEVD)-N'-ethoxycarbonyl-R110 fluorogenic substrate); type: cell-based; settings: ZR-75-1 human breast cancer cells, 24 h incubation; for Caspase activity (Ratio): ratio of net RFU of test compound to control; for EC50: sigmoidal dose-response, read-out: Caspase potency EC50
Method: as §1, §2

| EC50 (T-47D) | EC50 (ZR-75-1) | Compound | Caspase activity (Ratio) (T-47D) | Caspase activity (Ratio) (ZR-75-1) |
| --- | --- | --- | --- | --- |
| 6 nM | 3.4 nM | COc1cc(C2C(C#N)=C(N)Oc3c2ccc2c3ccn2C)cc(Br)c1O (centres unmarked) [Example 18, 2-Amino-4-(3-bromo-4-hydroxy-5-methoxyphenyl)-3-cyano-7-methyl-4H-pyrrolo[2,3-h]chromene] | 4.0 | 6.6 |
| 110 nM | 41.3 nM | Cc1cncc(C2C(C#N)=C(N)Oc3c2ccc2c3ccn2C)n1 (centres unmarked) [Example 2, 2-Amino-3-cyano-7-methyl-4-(6-methyl-pyrazin-2-yl)-4H-pyrrolo[2,3-h]chromene] | 8.2 | 4.3 |
